“Also recorded” adds a separate entry of the source.
Tests used:
Lin^− bone marrow cells [1] = assay: erythropoietic growth of Lin− bone marrow quantified by flow cytometry (Ter-119/CD71) and total cell counts; type: cell-based, mouse
Procedure: FIG. 13 is a bar graph of data obtained from experiments performed to determined the effect of Epo on the erythropoietic growth of Lin− bone marrow cells. Lin^− bone marrow cells were cultured for 1 day in media containing serum along with Epo at variable concentrations. Epo was removed from the culture media at the end of 1 day, and culture was continued for 2 more days in media with serum. At the end of the third day, the resulting populations were removed from culture and erythropoietic growth was quantified as the product of total cell counts and flow cytometric region fractions. Specifically, erythroid-specific growth at two late stages was calculated for each culture by taking the product of the total cell count and the fraction of the population found to have the indicated surface phenotype (determined by flow cytometry). These erythroid growth values were then normalized to the number of Lin^− cells seeded.
Studies were conducted by stimulating Lin^− mouse BM with specifically defined media formulations for 24 hours before replacing the medium to a minimal erythroid-differentiation medium (EDM) and culturing for an additional 2-3 days. This EDM contains 20% FBS, 2 mM L-glutamine, and 0.1 mM β-mercaptoethanol in IMDM, whereas the “Day 1” medium consists of IMDM with 15% FBS, 2 mM L-glutamine, 0.1 mM β-mercaptoethanol, 1% BSA, 200 μg holo-transferrin, 10 μg/mL insulin as well as further supplements (some specific media formulations listed in Table I). Upon harvest, the number of late-stage erythroid cells and enucleated erythrocytes produced over the culture period was analyzed. […] Although the most relevant endpoint for these cultures is PCEs-produced per primary BM cell, the number of R4 and R5 cells in the post-culture population, as measured by flow ctyometry, provided a reasonable metric of PCE content for early screening studies. More rigorous quantification, via histological analysis, was then employed in a more detailed analysis to generate FIGS. 11, 12, 14 and 16.
As shown above, short-term erythropoietic culture can be used to detect genotoxic exposure. Quantitative studies on the erythropoietic growth of Lin^− BM after stimulus with physiologic erythropoietic factors were used to further improve the culture methodology and thus increase the potential throughput of the in vitro erythroid MN assay described here. Initially, flow cytometry was used to define late-erythroid cells by subdividing the Ter-119^+ population based on CD71 expression (regions shown in FIG. 4) to estimate the fraction of a culture that acquired late-erythroid surface markers. The products of flow cytometric region statistics and total cell counts were calculated and then normalized to input cell numbers to quantify erythropoietic growth in a culture.
Table II. in vitro erythroid growth is modulated by physiologic erythropoietic stimuli. The culture conditions listed on the left-hand side of the table specify the environment in which a growth measurement was made. All soluble growth factors used in these experiments were removed from culture after 1 day. An X in this first section of the table indicates the variable parameter found to have a significant erythropoietic growth-effect. The measured effect of that parameter on erythropoietic growth is then given on the right-hand side of the table. In this right-hand section of the table, the first item listed is the defining surface phenotype of the erythropoietic population. […] Finally, the level of significance (P value) is given. Note that the first 4 entries to this table were taken from FIG. 13; other entries were obtained from similar figures. P values were determined by the two-tailed t test, except for the 3 italicized P values, which were determined using the one-tailed t test.

Lin^− bone marrow cells [2] = assay: PCE growth of Lin− bone marrow by acridine orange histology, fractional-factorial design with regression; type: cell-based, mouse
Procedure: (FIG. 14A) Lin^− bone marrow cells were cultured for 1 day in media containing serum and various combinations of soluble growth factors as listed on the abscissa; these specific 6-factor combinations constitute an orthogonal fractional-factorial design (also represented in Table 1). After 1 day, all soluble erythropoietic growth factors were removed and the cells were cultured for either 2 or 3 additional days in medium with serum. At harvest, the cells were removed from culture and late erythropoietic growth was quantified. For each culture, PCE numbers were calculated by taking the product of the total cell count and the PCE fraction of the population as determined by differential cell counting after staining with acridine orange (>2000 cells scored per culture). Growth calculations were normalized to input cell numbers and are presented as the mean of 3 independent cultures +/− the standard deviation. (FIG. 14B) Culture methods that yielded similar populations at harvest were grouped into subsets (α, β, γ, and δ); growth characteristics for these subsets were quantified and representative micrographs were acquired. […] Cultures exposed to SCF but not Epo (subset γ) expanded approximately 2.5-fold in total cell numbers, but again contained less than 3% PCEs. Cultures exposed to both Epo and SCF (subset β) expanded approximately 13-fold in total cell numbers and yielded populations in which approximately 31% of all cells are PCEs. Finally, cultures exposed to both Epo and Dex but not SCF (subset δ) expanded approximately 4-fold while producing populations in which approximately 51% of all cells are PCEs. Growth calculations are presented as the mean of all cultures in a subset ± the standard deviation. Scale bars: 20 μm.
Table I is an experimental design chart that provides the specific details of the experimental conditions that were examined to generate FIGS. 11, 12, 14 and 16. Specifically, this experimental design is a two-level, minimum-aberration, fractional-factorial design of resolution IV (a 2IV^6-2 minimum-aberration design). The full-factorial design was not performed because an experiment of this size (2^6 cultures for each biological singlet) was logisitically infeasible. This experiment was designed in order to estimate all the main (primary) interactions between the culture response (PCEs produced) and the individual parameters included in the design. In addition, many of the secondary interactions (between the culture response and various parameter-pairs) were estimable by conducting this design (see FIGS. 12 and 16), although some of these secondary interactions were confounded with other secondary interactions. Each condition listed in the design table was tested in biological triplicate, and each triplicate set was cultured under three different atmospheric conditions, to yield a total of nine culture wells per listed condition.
Furthermore, some variability between various Lin^− BM isolations was observed over the course of preliminary flow cytometric studies. Therefore, a definitive study was conducted that used aliquots of a large, well-mixed Lin^− population that was isolated from the combined BM of 15 mice. In this study, flow cytometry was replaced by histological analysis to provide more rigorous quantification of a population's PCE content. This study was designed to estimate the relative stimulatory effect of various, previously-identified erythroid growth factors on culture performance. Specifically a minimum-aberration, fractional-factorial experimental design (a 2IV^6-2 minimum-aberration design) was conducted to estimate all the main (primary) interactions between the culture response, which was PCEs produced (as assessed by histology), and the individual parameters included in the design (see Table I, and FIGS. 11, 12, 14 and 16). […]

[3] = complete multi-linear regression model (n3=27), parameters scaled 0 to 1
[4] = reduced multi-linear regression model (n3=17), FIG. 16

## C[C@@H]1C[C@H]2[C@@H]3CCC4=CC(=O)C=C[C@]4(C)[C@@]3(F)[C@@H](O)C[C@]2(C)[C@@]1(O)C(=O)CO [Dex, Dexamethasone, reference compound]
Lin^− bone marrow cells [1]; [Dex] = 1 μM, Ter-119+ CD71+, Epo 5 U/mL, SCF 0, 72 h, CO2 0.5%, 20% O2, Fn 2, Ins 10, IGF-I 10 ng/mL
  Avg Growth +/− SD: 0.278 +/− 0.102 per Lin^− cell seeded
Lin^− bone marrow cells [1]; [Dex] = 1 μM, Ter-119+ CD71−, Epo 5 U/mL, SCF 0, 72 h, CO2 0.5%, 20% O2, Fn 2, Ins 10, IGF-I 0
  Avg Growth +/− SD: 0.016 +/− 0.006 per Lin^− cell seeded
Lin^− bone marrow cells [1]; [Dex] = 10 μM, Ter-119+ CD71−, Epo 5 U/mL, SCF 0, 72 h, CO2 0.5%, 20% O2, Fn 2, Ins 10, IGF-I 0
  Avg Growth +/− SD: 0.028 +/− 0.016 per Lin^− cell seeded
Lin^− bone marrow cells [2]; [3]
  Scaled Estimate (model parameter, PCE growth): −0.298
Lin^− bone marrow cells [2]; [4]
  Scaled Estimate (model parameter, PCE growth): −0.333

## SCF: stem cell factor (R&D systems), soluble erythropoietic growth factor
Lin^− bone marrow cells [1]; [SCF] = 1 ng/mL, Ter-119+ CD71+, Epo 5 U/mL, 72 h, 5% CO2, 20% O2, Fn 2, Ins 10
  Avg Growth +/− SD: 0.897 +/− 0.053 per Lin^− cell seeded
Lin^− bone marrow cells [1]; [SCF] = 1 ng/mL, Ter-119+ CD71−, Epo 5 U/mL, 72 h, 5% CO2, 20% O2, Fn 2, Ins 10
  Avg Growth +/− SD: 0.275 +/− 0.026 per Lin^− cell seeded
Lin^− bone marrow cells [1]; [SCF] = 1 ng/mL, Ter-119+ CD71−, Epo 5 U/mL, 96 h, 5% CO2, 20% O2, Fn 2, Ins 10
  Avg Growth +/− SD: 0.372 +/− 0.052 per Lin^− cell seeded
Lin^− bone marrow cells [1]; [SCF] = 10 ng/mL, Ter-119+ CD71+, Epo 3.5 U/mL, 72 h, 5% CO2, 20% O2, Fn 2, Ins 10
  Avg Growth +/− SD: 1.512 +/− 0.100 per Lin^− cell seeded
Lin^− bone marrow cells [1]; [SCF] = 10 ng/mL, Ter-119+ CD71+, Epo 5 U/mL, 72 h, 5% CO2, 20% O2, Fn 2, Ins 10
  Avg Growth +/− SD: 1.448 +/− 0.155 per Lin^− cell seeded
Lin^− bone marrow cells [1]; [SCF] = 10 ng/mL, Ter-119+ CD71−, Epo 3.5 U/mL, 72 h, 5% CO2, 20% O2, Fn 2, Ins 10
  Avg Growth +/− SD: 0.202 +/− 0.023 per Lin^− cell seeded
Lin^− bone marrow cells [1]; [SCF] = 10 ng/mL, Ter-119+ CD71−, Epo 5 U/mL, 96 h, 5% CO2, 20% O2, Fn 2, Ins 10
  Avg Growth +/− SD: 0.608 +/− 0.081 per Lin^− cell seeded
Lin^− bone marrow cells [1]; [SCF] = 100 ng/mL, Ter-119+ CD71+, Epo 5 U/mL, 72 h, 5% CO2, 20% O2, Fn 2, Ins 10
  Avg Growth +/− SD: 1.929 +/− 0.154 per Lin^− cell seeded
Lin^− bone marrow cells [1]; [SCF] = 100 ng/mL, Ter-119+ CD71−, Epo 5 U/mL, 72 h, 5% CO2, 20% O2, Fn 2, Ins 10
  Avg Growth +/− SD: 0.369 +/− 0.041 per Lin^− cell seeded
Lin^− bone marrow cells [1]; preliminary flow cytometric studies, Lin− BM from C57BL/6J mice
  effect on erythropoietic growth (erythropoietic flow cytometry), in words: did induce increasing erythropoietic growth up to the maximum concentration tested
Lin^− bone marrow cells [2]; [3]
  Scaled Estimate (model parameter, PCE growth): 0.166
Lin^− bone marrow cells [2]; growth factors present for 1 day, then 2 or 3 additional days, acridine orange differential counts (FIG. 14B)
  PCEs among all cells of the harvested population: less than 3%
Lin^− bone marrow cells [2]; growth factors present for 1 day, then 2 or 3 additional days, mean of all cultures in a subset (FIG. 14B)
  expansion in total cell numbers: approximately 2.5 fold
Lin^− bone marrow cells [2]; primary and secondary effects, untreated cultures
  effect on PCE production / erythropoietic growth, statistical analysis of FIG. 12: major factors influencing erythropoietic growth; also recorded: next largest effects
Lin^− bone marrow cells [2]; [4]
  Scaled Estimate (model parameter, PCE growth): 0.138

## Ins: recombinant human insulin (Sigma)
Lin^− bone marrow cells [1]; [Ins] = 10 μg/mL, Ter-119+ CD71+, Epo 5 U/mL, SCF 0, 72 h, 5% CO2, 20% O2, Fn 0
  Avg Growth +/− SD: 1.743 +/− 0.107 per Lin^− cell seeded
Lin^− bone marrow cells [1]; [Ins] = 10 μg/mL, Ter-119+ CD71−, Epo 5 U/mL, SCF 0, 72 h, 5% CO2, 20% O2, Fn 0
  Avg Growth +/− SD: 0.382 +/− 0.008 per Lin^− cell seeded
Lin^− bone marrow cells [1]; [Ins] = 100 μg/mL, Ter-119+ CD71+, Epo 5 U/mL, SCF 0, 72 h, 5% CO2, 20% O2, Fn 0
  Avg Growth +/− SD: 2.096 +/− 0.121 per Lin^− cell seeded
Lin^− bone marrow cells [1]; [Ins] = 100 μg/mL, Ter-119+ CD71−, Epo 5 U/mL, SCF 0, 72 h, 5% CO2, 20% O2, Fn 0
  Avg Growth +/− SD: 0.427 +/− 0.015 per Lin^− cell seeded

Source: patent publication US20070087364A1, “In vitro erythroid micronucleus assay for genotoxicity” (Massachusetts Institute of Technology, priority 2005, published 2007)
